From patent US20220071971A1, “MACROCYCLIC COMPOUNDS AND THEIR USE IN THE TREATMENT OF DISEASE” (NOVARTIS AG, priority 2018, published 2022)

Molecular target: T1, delF508-CFTR (Homo sapiens, UniProt P13569, DEL508-508)
T1 construct: expressed in transfected cells
Assay: Measurement of delF508-CFTR-HRP surface expression in CFBE41o- cells
Type: cell-based
Settings: for EC50: HRP-tagged delF508-CFTR surface expression, CFBE41o- cells, 24 h with compound, 10-point curve, highest concentration 10 μM; for DelF508-CFTR-HRP Amax % / Emax: efficacy relative to reference compound 3-(6-(1-(2,2-difluorobenzo[d][1,3]dioxol-5-yl)cyclopropane-1-carboxamido)-3-methylpyridin-2-yl)benzoic acid; for Emax: CFBE41o-, read-out: DelF508-CFTR-HRP Amax %
Excerpt: Measurement of deIF508-CFTR-HRP Surface Expression in CFBE41o-Cells
This assay quantifies the cell surface expressions of the mutant CFTR channel using an extracellular HRP tag.
A cellular assay was developed to measure surface expression of horseradish peroxidase (HRP) tagged delF508-CFTR in the human bronchial epithelial immortalized CFBE41o-cell line (Phuan, P. W., et al, (2014) Molecular Pharmacology 86:42-51). Specifically, the HRP sequence was inserted into the fourth extracellular loop of delF508-CFTR and stably expressed in CFBE41o-cells. Cells were seeded in 384 well plate at a density of 5000 cells/well and incubated at 37° C. for 12 to 24 hours in medium (Gibco MEM #11095, 10% FBS, 10 mM HEPES, […], 200 μg/mL G418, 3 μg/mL Puromycin). The delF508-CFTR-HRP expression was induced with 500 ng/mL doxycycline (Sigma D-9891, dissolved in H2O and sterile filtered) in medium and the cells were incubated at 37° C. for 48 h. Old medium was removed and fresh medium was added containing 500 ng/mL doxycycline and unknown test compound at required test concentration in DMSO, not exceeding 0.5% final DMSO concentration. The highest concentration tested was 10 μM with a 10-point concentration response curve using a 3-fold dilution. After addition of compounds, the cells were incubated for 24 h at 37° C. On the final day, cells were washed four times in PBS containing 1 mM MgCl2 and 0.1 mM CaCl2. HRP-Substrate (SuperSignal ELISA Pico, Fisher #37069) 20 μl/well was added and the luminescence signal was determined (Viewlux, Perkin Elmer). Light was emitted upon addition of exogenous HRP-Substrate only when delF508-CFTR-HRP reached the cell surface and the HRP tag was accessible to the HRP-Substrate (note: HRP-Substrate cannot cross the lipid bilayer to reach delF508-CFTR-HRP misfolded within the cell).
The median activity for the lowest concentration of the compounds on each assay plate was calculated and this value was used to normalize the signal for each well on the respective plate. Three replicates at each concentrations for every compound were run to determine one EC50. The median value was determined and used to calculate compound activities as described below. Effective half maximal values (EC50) were calculated for each compound by performing logistic regression on measured dose-response data points using the equation: […]
where “Y” is the observed activity, “Bottom” is the lowest observed value, “Top” is the highest observed value, and the “Hill coefficient” gives the largest absolute value of the slope. The curve fitting is carried out by a curve fitting program implemented at GNF using Matlab (Mathworks).
The dose response curves also were used to calculate Fold Change (FC) using the equation: […]
Compound efficacy relative to the reference compound 3-(6-(1-(2,2-difluorobenzo[d][1,3]dioxol-5-yl)cyclopropane-1-carboxamido)-3-methylpyridin-2-yl)benzoic acid was determined using the following formula: […]

T1 sequence (P13569 with tags, fused parts or gaps DEL508-508): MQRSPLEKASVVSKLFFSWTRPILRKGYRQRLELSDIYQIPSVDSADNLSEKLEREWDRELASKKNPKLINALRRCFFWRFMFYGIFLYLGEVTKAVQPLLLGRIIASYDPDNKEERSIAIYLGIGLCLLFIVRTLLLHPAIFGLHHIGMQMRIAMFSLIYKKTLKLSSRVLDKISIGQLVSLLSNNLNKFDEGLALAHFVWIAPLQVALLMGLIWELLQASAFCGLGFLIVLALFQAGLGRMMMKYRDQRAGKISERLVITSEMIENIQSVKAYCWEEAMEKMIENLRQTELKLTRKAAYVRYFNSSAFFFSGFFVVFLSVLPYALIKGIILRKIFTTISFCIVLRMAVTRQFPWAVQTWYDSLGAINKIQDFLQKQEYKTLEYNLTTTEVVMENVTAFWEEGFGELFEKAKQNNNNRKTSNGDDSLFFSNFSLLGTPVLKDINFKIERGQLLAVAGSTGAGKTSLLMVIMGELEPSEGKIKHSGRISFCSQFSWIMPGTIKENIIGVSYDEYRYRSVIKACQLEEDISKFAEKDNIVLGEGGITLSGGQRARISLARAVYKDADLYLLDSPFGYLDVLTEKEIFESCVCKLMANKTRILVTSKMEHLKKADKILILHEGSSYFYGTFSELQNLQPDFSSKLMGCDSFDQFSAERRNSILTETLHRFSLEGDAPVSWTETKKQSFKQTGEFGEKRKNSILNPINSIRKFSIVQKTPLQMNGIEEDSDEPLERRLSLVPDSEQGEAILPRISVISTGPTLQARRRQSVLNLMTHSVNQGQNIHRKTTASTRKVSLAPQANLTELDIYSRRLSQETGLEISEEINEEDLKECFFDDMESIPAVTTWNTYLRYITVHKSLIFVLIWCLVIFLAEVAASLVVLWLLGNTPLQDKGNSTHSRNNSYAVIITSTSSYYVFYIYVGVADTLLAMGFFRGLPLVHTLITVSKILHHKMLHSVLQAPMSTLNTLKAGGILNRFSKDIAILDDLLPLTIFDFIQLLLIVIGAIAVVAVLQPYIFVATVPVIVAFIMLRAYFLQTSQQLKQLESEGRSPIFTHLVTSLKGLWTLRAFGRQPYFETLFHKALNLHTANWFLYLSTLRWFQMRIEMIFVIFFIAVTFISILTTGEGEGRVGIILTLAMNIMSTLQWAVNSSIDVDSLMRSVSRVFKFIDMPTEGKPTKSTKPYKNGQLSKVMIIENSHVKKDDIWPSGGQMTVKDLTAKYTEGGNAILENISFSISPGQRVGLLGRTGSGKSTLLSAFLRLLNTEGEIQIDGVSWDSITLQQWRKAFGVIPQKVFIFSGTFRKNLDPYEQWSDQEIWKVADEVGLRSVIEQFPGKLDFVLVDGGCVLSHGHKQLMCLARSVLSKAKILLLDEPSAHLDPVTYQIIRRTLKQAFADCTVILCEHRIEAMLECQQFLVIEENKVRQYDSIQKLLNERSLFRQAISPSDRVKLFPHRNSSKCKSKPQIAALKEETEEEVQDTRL

Row | Compound | EC50 | DelF508-CFTR-HRP Amax % | Emax
1 | 6-(3-hydroxypropyl)-2^3-(trifluoromethyl)-9-oxa-4-thia-3,6-diaza-2,5(2,6)-dipyridina-1(1,2)-benzenacyclododecaphane 4,4-dioxide [Compound 30] | 1480 nM | 1656.8% | –
2 | 8-hydroxy-2^3-(trifluoromethyl)-4-thia-3,6-diaza-2,5(2,6)-dipyridina-1(1,2)-benzenacycloundecaphane 4,4-dioxide [Compound 38] | 1410 nM | 224.1% | –
3 | O=S1(=O)Nc2ccc(C(F)(F)F)c(n2)-c2ccccc2OCCCCNc2cccc1n2 [Compound 1, 2^3-(trifluoromethyl)-11-oxa-4-thia-3,6-diaza-2,5(2,6)-dipyridina-1(1,2)-benzenacycloundecaphane 4,4-dioxide] | 978 nM | – | 372%
4 | O=S1(=O)Nc2ccc(C(F)(F)F)c(n2)-c2ccccc2OCCCCN(CCO)c2cccc1n2 [Compound 2, 6-(2-hydroxyethyl)-2^3-(trifluoromethyl)-11-oxa-4-thia-3,6-diaza-2,5(2,6)-dipyridina-1(1,2)-benzenacycloundecaphane 4,4-dioxide] | 606 nM | – | 610%
5 | CCOC(=O)CN1CCCCOc2ccccc2-c2nc(ccc2C(F)(F)F)NS(=O)(=O)c2cccc1n2 [Compound 3, ethyl 2-(4,4-dioxido-2^3-(trifluoromethyl)-11-oxa-4-thia-3,6-diaza-2,5(2,6)-dipyridina-1(1,2)-benzenacycloundecaphane-6-yl)acetate] | 335 nM | – | 361%
6 | O=C(O)CN1CCCCOc2ccccc2-c2nc(ccc2C(F)(F)F)NS(=O)(=O)c2cccc1n2 [Compound 4, 2-(4,4-dioxido-2^3-(trifluoromethyl)-11-oxa-4-thia-3,6-diaza-2,5(2,6)-dipyridina-1(1,2)-benzenacycloundecaphane-6-yl)acetic acid] | 2870 nM | – | 74.4%
7 | O=S1(=O)Nc2ccc(C(F)(F)F)c(n2)-c2cccnc2NCCCCNc2cccc1n2 [Compound 5, 2^3-(trifluoromethyl)-4-thia-3,6,11-triaza-1(3,2),2,5(2,6)-tripyridinacycloundecaphane 4,4-dioxide] | 1620 nM | – | 159%
8 | O=S1(=O)Nc2ccc(C(F)(F)F)c(n2)-c2cccnc2NCCCCCNc2cccc1n2 [Compound 6, 2^3-(trifluoromethyl)-4-thia-3,6,12-triaza-1(3,2),2,5(2,6)-tripyridinacyclododecaphane 4,4-dioxide] | 1680 nM | – | 248%
9 | O=S1(=O)Nc2ccc(C(F)(F)F)c(n2)-c2cccnc2NCCCCCCNc2cccc1n2 [Compound 7, 2^3-(trifluoromethyl)-4-thia-3,6,13-triaza-1(3,2),2,5(2,6)-tripyridinacyclotridecaphane 4,4-dioxide] | 977 nM | – | 386%
10 | CN1CCCCCCN(C)c2ncccc2-c2nc(ccc2C(F)(F)F)NS(=O)(=O)c2cccc1n2 [Compound 8, 6,13-dimethyl-2^3-(trifluoromethyl)-4-thia-3,6,13-triaza-1(3,2),2,5(2,6)-tripyridinacyclotridecaphane 4,4-dioxide] | 410 nM | – | 564%
11 | CN1CCCN(C)c2ncccc2-c2nc(ccc2C(F)(F)F)NS(=O)(=O)c2cccc1n2 [Compound 9, 6,10-dimethyl-2^3-(trifluoromethyl)-4-thia-3,6,10-triaza-1(3,2),2,5(2,6)-tripyridinacyclodecaphane 4,4-dioxide] | 1710 nM | – | 367%
12 | O=S1(=O)Nc2ccc(C(F)(F)F)c(n2)-c2cccnc2NCCCNc2cccc1n2 [Compound 10, 2^3-(trifluoromethyl)-4-thia-3,6,10-triaza-1(3,2),2,5(2,6)-tripyridinacyclodecaphane 4,4-dioxide] | 2800 nM | – | 29%
13 | O=S1(=O)Nc2ccc(C(F)(F)F)c(n2)-c2ccccc2COCCCNc2cccc1n2 [Compound 11, 2^3-(trifluoromethyl)-10-oxa-4-thia-3,6-diaza-2,5(2,6)-dipyridina-1(1,2)-benzenacycloundecaphane 4,4-dioxide] | 1360 nM | – | 442%
14 | O=S1(=O)Nc2ccc(C(F)(F)F)c(n2)-c2ccccc2CCCCCCN(CCCCCO)c2cccc1n2 [Compound 12, 6-(5-hydroxypentyl)-2^3-(trifluoromethyl)-4-thia-3,6-diaza-2,5(2,6)-dipyridina-1(1,2)-benzenacyclododecaphane 4,4-dioxide] | 236 nM | – | –
15 | O=S1(=O)Nc2ccc(C(F)(F)F)c(n2)-c2ccccc2CCCCCN(CCN2CCOCC2)c2cccc1n2 [Compound 13, 6-(2-morpholinoethyl)-2^3-(trifluoromethyl)-4-thia-3,6-diaza-2,5(2,6)-dipyridina-1(1,2)-benzenacycloundecaphane 4,4-dioxide] | 393 nM | – | 601%
16 | O=S1(=O)Nc2ccc(C(F)(F)F)c(n2)-c2ccccc2CCCCCN(CCOCCCO)c2cccc1n2 [Compound 14, 6-(2-(3-hydroxypropoxy)ethyl)-2^3-(trifluoromethyl)-4-thia-3,6-diaza-2,5(2,6)-dipyridina-1(1,2)-benzenacycloundecaphane 4,4-dioxide] | 334 nM | – | 489%
17 | O=S1(=O)Nc2ccc(C(F)(F)F)c(n2)-c2ccccc2CCCCCN(CCCCCO)c2cccc1n2 [Compound 15, 6-(5-hydroxypentyl)-2^3-(trifluoromethyl)-4-thia-3,6-diaza-2,5(2,6)-dipyridina-1(1,2)-benzenacycloundecaphane 4,4-dioxide] | 304 nM | – | 708%
18 | O=S1(=O)Nc2ccc(C(F)(F)F)c(n2)-c2ccccc2CCCCCCN(CCCCO)c2cccc1n2 [Compound 16, 6-(4-hydroxybutyl)-2^3-(trifluoromethyl)-4-thia-3,6-diaza-2,5(2,6)-dipyridina-1(1,2)-benzenacyclododecaphane 4,4-dioxide] | 303 nM | – | –
19 | COc1ccc2nc1-c1ccccc1CCCCCN(CCCCO)c1cccc(n1)S(=O)(=O)N2 [Compound 17, 6-(4-hydroxybutyl)-2^3-methoxy-4-thia-3,6-diaza-2,5(2,6)-dipyridina-1(1,2)-benzenacycloundecaphane 4,4-dioxide] | 2340 nM | – | 347%
20 | CCN1CCCCCc2ccccc2-c2nc(ccc2C(F)(F)F)NS(=O)(=O)c2cccc1n2 [Compound 18, 6-ethyl-2^3-(trifluoromethyl)-4-thia-3,6-diaza-2,5(2,6)-dipyridina-1(1,2)-benzenacycloundecaphane 4,4-dioxide] | 645 nM | – | 802%
21 | Cc1ccc2nc1-c1ccccc1CCCCCN(CCCCO)c1cccc(n1)S(=O)(=O)N2 [Compound 19, 6-(4-hydroxybutyl)-2^3-methyl-4-thia-3,6-diaza-2,5(2,6)-dipyridina-1(1,2)-benzenacycloundecaphane 4,4-dioxide] | 1620 nM | – | 490%
22 | O=S1(=O)Nc2ccc(C(F)(F)F)c(n2)-c2ccccc2CCCCN(CCCO)c2cccc1n2 [Compound 20, 6-(3-hydroxypropyl)-2^3-(trifluoromethyl)-4-thia-3,6-diaza-2,5(2,6)-dipyridina-1(1,2)-benzenacyclodecaphane 4,4-dioxide] | 360 nM | – | 337%
23 | O=S1(=O)Nc2ccc(C(F)(F)F)c(n2)-c2ccccc2CCCCCCN(CCCO)c2cccc1n2 [Compound 21, 6-(3-hydroxypropyl)-2^3-(trifluoromethyl)-4-thia-3,6-diaza-2,5(2,6)-dipyridina-1(1,2)-benzenacyclododecaphane 4,4-dioxide] | 179 nM | – | 941%
24 | O=S1(=O)Nc2ccc(C(F)(F)F)c(n2)-c2cc(F)ccc2OCCCCN(CCCO)c2cccc1n2 [Compound 22, 1^5-fluoro-6-(3-hydroxypropyl)-2^3-(trifluoromethyl)-11-oxa-4-thia-3,6-diaza-2,5(2,6)-dipyridina-1(1,2)-benzenacycloundecaphane 4,4-dioxide] | 603 nM | – | 666%
